Structures are written as SMILES.

The target of the first experiment is T1, human ALK (Homo sapiens, UniProt Q9UM73).
T1 construct: GST (N); purchased Invitrogen, Carlsbad, Calif; (or prepared by AstraZeneca); host or cells: insect cells
T1 sequence (Q9UM73 1058-1620): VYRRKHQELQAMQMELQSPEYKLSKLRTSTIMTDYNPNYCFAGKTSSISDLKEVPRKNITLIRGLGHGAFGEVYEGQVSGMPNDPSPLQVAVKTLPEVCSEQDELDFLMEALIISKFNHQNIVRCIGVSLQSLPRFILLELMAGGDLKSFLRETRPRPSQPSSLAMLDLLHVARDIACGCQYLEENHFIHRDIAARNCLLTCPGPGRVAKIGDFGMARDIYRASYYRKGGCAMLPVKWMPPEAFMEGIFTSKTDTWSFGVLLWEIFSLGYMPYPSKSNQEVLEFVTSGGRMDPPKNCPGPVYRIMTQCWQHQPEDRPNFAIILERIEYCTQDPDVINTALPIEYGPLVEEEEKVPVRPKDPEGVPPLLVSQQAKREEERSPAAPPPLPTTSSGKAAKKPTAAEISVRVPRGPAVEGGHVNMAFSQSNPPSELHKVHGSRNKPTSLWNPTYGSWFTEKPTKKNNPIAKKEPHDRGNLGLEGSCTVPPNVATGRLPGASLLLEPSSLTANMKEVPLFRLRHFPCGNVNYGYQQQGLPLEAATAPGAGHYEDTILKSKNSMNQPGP
The experiment in a line: ALK kinase mobility shift assay (Caliper LC3000). Particulars: cumulative geometric means including test re-runs, some obtained since the priority filings; ATP 30 μM (Km) or 5 mM, not specified which; read-out: ALK Enzyme IC50 (μM)**. Type of experiment: biochemical. On the procedure: ALK kinase activity was determined by measuring the kinase's ability to phosphorylate a tyrosine residue within a peptide substrate using a mobility shift assay on a Caliper LC3000 reader (Caliper Life Sciences, Hopkinton, Mass.), which measures fluorescence of the phosphorylated and unphosphorylated substrate and calculates a ratiometric value to determine percent turnover.
To measure ALK kinase activity, the ALK enzyme used was N-terminal GST-tagged, recombinant, human ALK, amino acids 1058-1620 (Genbank Accession number NP_004295) expressed in insect cells and activated in-vitro via autophosphorylation. This was either purchased from a commercially available source (Invitrogen, Carlsbad, Calif.) or prepared by AstraZeneca. The kinase was incubated with a FAM labeled SRCtide substrate (5FAM-GEEPLYWSFPAKKK-NH2, AnaSpec, Fremont, Calif.), 30 μM adenosine triphosphate (ATP, at Km concentration) or 5 mM ATP, 50 mM HEPES buffer (pH 7.3), 1 mM DTT, 0.01% Tween 20, 50 μg/ml BSA and 10 mM MgCl2 for 90 minutes at room temperature. After this time, the kinase reaction was stopped by adding quenching buffer containing final concentrations of 36 mM ethylenediaminetetraacetic acid (EDTA), 65 mM HEPES buffer (pH 7.3), 0.2% Coatin Reagent 3 (Caliper Life Sciences, Hopkinton, Mass.), and 0.003% Tween 20. The reaction was performed in 384 well microtitre plates and the reaction products were detected using the Caliper LC3000 Reader in the presence of separation buffer consisting of 100 mM HEPES (pH 7.3), 15.8 mM EDTA, 0.1% Coatin Reagent 3 (Caliper, Mass.), 0.015% Brij-35, 5% DMSO, and 5.6 mM MgCl2. The separation conditions set up on the Caliper LC3000 were −1.7 PSI, −400V upstream voltage, −2000V downstream voltage, 0.2 second sample sip, 45 second post sip, and 150 seconds final delay. The percentage of inhibition of ALK enzyme activity by compounds were measured based on Max signals (DMSO control) and Min signals (EDTA control) in the plates. Data was graphed and IC50s calculated by IDBS ActivityBase program.
In general, IC50 refers to the midpoint of a concentration-inhibition curve. `COc1cc(P2(=O)CCC(N)CC2)ccc1Nc1ncc(Cl)c(-c2c[nH]c3ccccc23)n1` (single isomer, unassigned) [Example 42, N-[4-(4-amino-1-oxidophosphinan-1-yl)-2-methoxyphenyl]-5-chloro-4-(1H-indol-3-yl)pyrimidin-2-amine]: the IC50 came to 0.083 µM.
In the case of `COc1cc(N2CCC(N)C(C)(C)C2)ccc1Nc1ncc(Cl)c(-c2c[nH]c3ccccc23)n1` (centres unmarked) [Example 30, N-(4-(4-amino-3,3-dimethylpiperidin-1-yl)-2-methoxyphenyl)-5-chloro-4-(1H-indol-3-yl)pyrimidin-2-amine], the IC50 was 0.151 µM.
Take `COc1cc(N2CCC(N)C(F)C2)ccc1Nc1ncc(Cl)c(-c2c[nH]c3ccccc23)n1` (single isomer, unassigned) [Example 46, (trans)-N-(4-(4-amino-3-fluoropiperidin-1-yl)-2-methoxyphenyl)-5-chloro-4-(1H-indol-3-yl)pyrimidin-2-amine]: the IC50 was 0.039 µM.
`COc1cc(P2(=O)CCC(N)CC2)ccc1Nc1ncc(C)c(-c2c[nH]c3ccccc23)n1` (single isomer, unassigned) [Example 43, N-[4-(4-amino-1-oxidophosphinan-1-yl)-2-methoxyphenyl]-4-(1H-indol-3-yl)-5-methylpyrimidin-2-amine]: the half-inhibitory concentration (IC50) came out at 0.158 µM.
On to `COc1cc(P2(=O)CCC(N)CC2)ccc1Nc1ncc(C)c(-c2c[nH]c3ccccc23)n1` (single isomer, unassigned) [Example 44, N-[4-(4-amino-1-oxidophosphinan-1-yl)-2-methoxyphenyl]-4-(1H-indol-3-yl)-5-methylpyrimidin-2-amine], for which the half-inhibitory concentration (IC50) worked out at 0.02 µM.
Take `COc1cc(N2CC[C@H](N)[C@H](F)C2)ccc1Nc1ncc(Cl)c(-c2c[nH]c3ccccc23)n1` [Example 33, N-(4-((3R,4S)-4-amino-3-fluoropiperidin-1-yl)-2-methoxyphenyl)-5-chloro-4-(1H-indol-3-yl)pyrimidin-2-amine]: the IC50 turned out to be 0.03 µM.
On to `COc1cc(N2CCC(N(C)C)CC2)ccc1Nc1ncc(Cl)c(-c2c[nH]c3ccccc23)n1` [Example 12, 5-Chloro-N-(4-(4-(dimethylamino)piperidin-1-yl)-2-methoxyphenyl)-4-(1H-indol-3-yl)pyrimidin-2-amine], for which the half-inhibitory concentration (IC50) is 0.021 µM.

Staying with this experiment, now noted: geometric means of multiple test runs, as presented in the priority filings; ATP 30 μM (Km) or 5 mM, not specified which; read-out: ALK Enzyme IC50 (μM)*.
Take `COc1cc(N2CCC(N3C[C@@H](C)O[C@@H](C)C3)CC2)ccc1Nc1ncc(Cl)c(-c2c[nH]c3ccccc23)n1` [Example 24, 5-Chloro-N-(4-(4-((2S,6R)-2,6-dimethylmorpholino)piperidin-1-yl)-2-methoxyphenyl)-4-(1H-indol-3-yl)pyrimidin-2-amine]: the IC50 was found to be 0.14 µM.
With `COc1cc(N2CCC(N3CCN(C(C)C)CC3)CC2)ccc1Nc1ncc(Cl)c(-c2c[nH]c3ccccc23)n1` [Example 23, 5-Chloro-4-(1H-indol-3-yl)-N-(4-(4-(4-isopropylpiperazin-1-yl)piperidin-1-yl)-2-methoxyphenyl)pyrimidin-2-amine], the IC50 stood at 0.028 µM.
For the molecule `COc1cc(N2CCC(N3CCN(C)CC3)CC2)c(C)cc1Nc1ncc(C)c(-c2c[nH]c3ccccc23)n1` [Example 15, 4-(1H-Indol-3-yl)-N-(2-methoxy-5-methyl-4-(4-(4-methylpiperazin-1-yl)piperidin-1-yl)phenyl)-5-methylpyrimidin-2-amine], the IC50 worked out at 0.144 µM.
For the molecule `COc1cc(N2CCC(N3CCN(C)CC3)CC2)ccc1Nc1ncc(C(F)(F)F)c(-c2c[nH]c3ccccc23)n1` [Example 8, 4-(1H-Indol-3-yl)-N-(2-methoxy-4-(4-(4-methylpiperazin-1-yl)piperidin-1-yl)phenyl)-5-(trifluoromethyl)pyrimidin-2-amine], the IC50 worked out at 0.061 µM.
The same measure, in the same setting: the result for `COc1cc(N2CCC(N(C)C)CC2)c(C)cc1Nc1ncc(Cl)c(-c2c[nH]c3ccccc23)n1` [Example 16, 5-Chloro-N-(4-(4-(dimethylamino)piperidin-1-yl)-2-methoxy-5-methylphenyl)-4-(1H-indol-3-yl)pyrimidin-2-amine] reads 0.019 µM.
On to `COc1cc(N2CCC(N)C(C)(C)C2)ccc1Nc1ncc(Cl)c(-c2c[nH]c3ccccc23)n1` (centres unmarked) [Example 30, N-(4-(4-amino-3,3-dimethylpiperidin-1-yl)-2-methoxyphenyl)-5-chloro-4-(1H-indol-3-yl)pyrimidin-2-amine], for which the IC50 is 0.182 µM.
As for `COc1cc(N2CCC(N(C)C)CC2)ccc1Nc1ncc(F)c(-c2c[nH]c3ccccc23)n1` [Example 13, N-(4-(4-(Dimethylamino)piperidin-1-yl)-2-methoxyphenyl)-5-fluoro-4-(1H-indol-3-yl)pyrimidin-2-amine], the IC50 amounted to 0.05 µM.
Take `COc1cc(N2CCC(NC3CC3)CC2)ccc1Nc1ncc(Cl)c(-c2c[nH]c3ccccc23)n1` [Example 6, 5-Chloro-N-(4-(4-(cyclopropylamino)piperidin-1-yl)-2-methoxyphenyl)-4-(1H-indol-3-yl)pyrimidin-2-amine]: the 50% inhibitory concentration (IC50) worked out at 0.058 µM.
With `COc1cc(N2CCC(N(C)C)CC2)c(C)cc1Nc1ncc(C)c(-c2c[nH]c3ccccc23)n1` [Example 17, N-(4-(4-(Dimethylamino)piperidin-1-yl)-2-methoxy-5-methylphenyl)-4-(1H-indol-3-yl)-5-methylpyrimidin-2-amine], the IC50 is 0.047 µM.
Same read-out and setting: the result for `COc1cc(N2CCC(N3CCN(C)CC3)CC2)c(C)cc1Nc1ncc(Cl)c(-c2c[nH]c3ccccc23)n1` [Example 14, 5-Chloro-4-(1H-indol-3-yl)-N-(2-methoxy-5-methyl-4-(4-(4-methylpiperazin-1-yl)piperidin-1-yl)phenyl)pyrimidin-2-amine] reads 0.024 µM; that for `COc1cc(N2CCC(N(C)C)CC2)ccc1Nc1ncc(C(F)(F)F)c(-c2c[nH]c3ccccc23)n1` [Example 29, N-(4-(4-(dimethylamino)piperidin-1-yl)-2-methoxyphenyl)-4-(1H-indol-3-yl)-5-(trifluoromethyl)pyrimidin-2-amine], 0.021 µM; that for `COc1cc(N2CC[C@H](N)[C@H](F)C2)ccc1Nc1ncc(Cl)c(-c2c[nH]c3ccccc23)n1` [Example 33, N-(4-((3R,4S)-4-amino-3-fluoropiperidin-1-yl)-2-methoxyphenyl)-5-chloro-4-(1H-indol-3-yl)pyrimidin-2-amine], 0.025 µM.
As for `COc1cc(N2CCC(N)CC2)c(C)cc1Nc1ncc(Cl)c(-c2c[nH]c3ccccc23)n1` [Example 18, N-(4-(4-Aminopiperidin-1-yl)-2-methoxy-5-methylphenyl)-5-chloro-4-(1H-indol-3-yl)pyrimidin-2-amine], the half-inhibitory concentration (IC50) is 0.027 µM.
Still for that read-out and setting: the result for `COc1cc(N2CCC(N3CC[C@@H](F)C3)CC2)ccc1Nc1ncc(Cl)c(-c2c[nH]c3ccccc23)n1` [Example 22, 5-Chloro-N-(4-{4-[(3R)-3-fluoropyrrolidin-1-yl]piperidin-1-yl}-2-methoxyphenyl)-4-(1H-indol-3-yl)pyrimidin-2-amine] reads 0.057 µM; that for `COc1cc(N2CCC(N3CCN(C)CC3)CC2)c(F)cc1Nc1ncc(F)c(-c2c[nH]c3ccccc23)n1` [Example 37, 5-Fluoro-N-[5-fluoro-2-methoxy-4-[4-(4-methylpiperazin-1-yl)-1-piperidyl]phenyl]-4-(1H-indol-3-yl)pyrimidin-2-amine], 0.244 µM.
Take `COc1cc(N2CCC(N)CC2)ccc1Nc1ncc(F)c(-c2c[nH]c3ccccc23)n1` [Example 41, N-[4-(4-Amino-1-piperidyl)-2-methoxy-phenyl]-5-fluoro-4-(1H-indol-3-yl)pyrimidin-2-amine]: the IC50 is 0.068 µM.
As to `COc1cc(N2CCC(N3CCN(C)CC3)CC2)c(F)cc1Nc1ncc(Cl)c(-c2c[nH]c3ccccc23)n1` [Example 39, 5-chloro-N-[5-fluoro-2-methoxy-4-[4-(4-methylpiperazin-1-yl)-1-piperidyl]phenyl]-4-(1H-indol-3-yl)pyrimidin-2-amine], the IC50 amounted to 0.225 µM.
Turning to `COc1cc(N2CCC(N(C)C)CC2)ccc1Nc1ncc(C)c(-c2c[nH]c3ccccc23)n1` [Example 11, N-(4-(4-(Dimethylamino)piperidin-1-yl)-2-methoxyphenyl)-4-(1H-indol-3-yl)-5-methylpyrimidin-2-amine], the IC50 came to 0.086 µM.
Regarding `CNC1CCN(c2ccc(Nc3ncc(Cl)c(-c4c[nH]c5ccccc45)n3)c(OC)c2)CC1` [Example 2, 5-Chloro-4-(1H-indol-3-yl)-N-(2-methoxy-4-(4-(methylamino)piperidin-1-yl)phenyl)pyrimidin-2-amine], the IC50 came out at 0.023 µM.
As for `COc1cc(N2CCC(N(C)C)CC2)ccc1Nc1ncc(Cl)c(-c2c[nH]c3ccccc23)n1` [Example 12, 5-Chloro-N-(4-(4-(dimethylamino)piperidin-1-yl)-2-methoxyphenyl)-4-(1H-indol-3-yl)pyrimidin-2-amine], the IC50 was 0.023 µM.
`COc1cc(N2CCC(N)CC2)c(C)cc1Nc1ncc(C)c(-c2c[nH]c3ccccc23)n1` [Example 19, N-(4-(4-aminopiperidin-1-yl)-2-methoxy-5-methylphenyl)-4-(1H-indol-3-yl)-5-methylpyrimidin-2-amine]: the IC50 is 0.052 µM.
As to `COc1cc(N2CCC(N3CC[C@@H](F)C3)CC2)c(C)cc1Nc1ncc(Cl)c(-c2c[nH]c3ccccc23)n1` [Example 25, (R)-5-Chloro-N-(4-(4-(3-fluoropyrrolidin-1-yl)piperidin-1-yl)-2-methoxy-5-methylphenyl)-4-(1H-indol-3-yl)pyrimidin-2-amine], the IC50 came out at 0.39 µM.

Source of the values: patent US8461170B2, “Chemical compounds” (Astrazeneca AB, priority 2010, dated 2013).
